# Test results from patent publication US20240082223A1, “DIHYDROFUROPYRIDINE DERIVATIVES AS RHO- KINASE INHIBITORS” (CHIESI FARMACEUTICI S.P.A., priority 2020, published 2024).
# Experiments:
# Format in all cases: biochemical
# [1] = target: T1, ROCK2 (Homo sapiens, UniProt O75116); experiment: In vitro inhibitory activity assay ROCK2 (Method B, ADP-Glo, 200 μM ATP); details: ATP 200 μM, read-out: Method B ROCK 2 (Ki)
# Description: (§1) In Vitro Inhibitory Activity Assay Description ROCK1 and ROCK2
# (§2) The effectiveness of compounds of the present invention to inhibit Rho kinase activity can be determined in a 10 μl assay containing 40 mM Tris pH7.5, 20 mM MgCl2 0.1 mg/mL BSA, 50 μM DTT and 2.5 μM peptide substrate (Myelin Basic Protein) using an ADP-Glo kit (Promega). Compounds were dissolved in DMSO such that the final concentration of DMSO was 1% in the assay. All reactions/incubations are performed at 25° C. Compound (2 μL) and either Rho kinase 1 or 2 (4 μl) were mixed and incubated for 30 min. Reactions were initiated by addition of ATP (4 μL) such that the final concentration of ATP in the assay was 200 μM. After a 1 hour incubation 10111 of ADP-Glo Reagent was added and after a further 45 minute incubation 20 μL of Kinase Detection Buffer was added and the mixture incubated for a further 30 minutes. The luminescent signal was measured on a luminometer. […] Compounds were tested in dose-response format and the inhibition of kinase activity was calculated at each concentration of compound. To determine the IC50 (concentration of compound required to inhibit 50% of the enzyme activity) data were fit to a plot of % inhibition vs Log10 compound concentration using a sigmoidal fit with a variable slope and fixing the maximum to 100% and the minimum to 0%. To determine the Ki values the Cheng-Prusoff equation was utilized (Ki=IC50/(1[S]/Km).
# [2] = target: T1, ROCK2; experiment: In vitro inhibitory activity assay ROCK2 (Method A, ADP-Glo, 10 μM ATP); details: ATP 10 μM, read-out: Method A ROCK 2 (Ki)
# Description: (§3) In vitro inhibitory activity assay description ROCK1 and ROCK2
# as §2, with “(2 uL)” for “(2 μL)”, “was 10” for “was 200”, “incubation […]” for “incubation 10111”, “45 minutes” for “45 minute”, “20 uL” for “20 μL”, “utilized (Ki=IC50/(1+[S]/Km).” for “utilized (Ki=IC50/(1[S]/Km).”
# [3] = target: T2, ROCK1 (Homo sapiens, UniProt Q13464); experiment: In vitro inhibitory activity assay ROCK1 (Method B, ADP-Glo, 200 μM ATP); details: ATP 200 μM, read-out: Method B ROCK 1 (Ki)
# T2 sequence (Q13464 whole entry): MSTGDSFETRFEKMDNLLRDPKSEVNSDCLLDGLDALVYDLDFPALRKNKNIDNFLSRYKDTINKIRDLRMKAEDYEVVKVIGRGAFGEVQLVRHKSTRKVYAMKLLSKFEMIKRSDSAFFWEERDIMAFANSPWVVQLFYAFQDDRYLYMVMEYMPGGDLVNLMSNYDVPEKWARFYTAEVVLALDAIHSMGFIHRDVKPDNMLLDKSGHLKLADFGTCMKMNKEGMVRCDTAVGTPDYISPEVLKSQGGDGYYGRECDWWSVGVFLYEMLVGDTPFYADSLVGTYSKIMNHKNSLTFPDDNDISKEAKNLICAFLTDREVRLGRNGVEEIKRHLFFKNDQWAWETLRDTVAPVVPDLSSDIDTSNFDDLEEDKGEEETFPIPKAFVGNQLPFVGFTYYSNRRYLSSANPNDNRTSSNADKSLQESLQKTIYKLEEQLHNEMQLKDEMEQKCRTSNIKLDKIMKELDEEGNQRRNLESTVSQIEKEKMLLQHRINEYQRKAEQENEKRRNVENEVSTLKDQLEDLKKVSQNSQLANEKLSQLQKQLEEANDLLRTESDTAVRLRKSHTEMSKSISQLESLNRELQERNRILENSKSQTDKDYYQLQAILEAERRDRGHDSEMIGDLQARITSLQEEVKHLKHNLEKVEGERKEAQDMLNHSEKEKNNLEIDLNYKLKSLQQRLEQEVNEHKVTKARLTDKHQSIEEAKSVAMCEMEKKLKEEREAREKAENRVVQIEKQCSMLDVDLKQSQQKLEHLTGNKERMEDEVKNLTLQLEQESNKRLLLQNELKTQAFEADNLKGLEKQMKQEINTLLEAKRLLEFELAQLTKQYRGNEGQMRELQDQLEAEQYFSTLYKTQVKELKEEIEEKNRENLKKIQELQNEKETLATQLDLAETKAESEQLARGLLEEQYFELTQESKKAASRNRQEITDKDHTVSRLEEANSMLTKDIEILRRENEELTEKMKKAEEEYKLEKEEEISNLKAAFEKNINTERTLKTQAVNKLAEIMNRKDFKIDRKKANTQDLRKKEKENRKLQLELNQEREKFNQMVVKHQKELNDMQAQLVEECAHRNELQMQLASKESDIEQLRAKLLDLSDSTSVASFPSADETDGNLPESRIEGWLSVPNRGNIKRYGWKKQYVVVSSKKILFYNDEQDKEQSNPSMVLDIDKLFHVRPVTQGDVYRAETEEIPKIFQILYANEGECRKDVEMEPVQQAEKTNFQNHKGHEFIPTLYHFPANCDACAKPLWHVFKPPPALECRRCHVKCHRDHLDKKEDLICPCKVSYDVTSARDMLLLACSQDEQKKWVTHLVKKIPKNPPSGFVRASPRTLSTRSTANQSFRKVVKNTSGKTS
# Description: as §1, §2
# [4] = target: T2, ROCK1; experiment: In vitro inhibitory activity assay ROCK1 (Method A, ADP-Glo, 10 μM ATP); details: ATP 10 μM, read-out: Method A ROCK 1 (Ki)
# Description: as §3
# as §2, with “(2 uL)” for “(2 μL)”, “was 10” for “was 200”, “incubation […]” for “incubation 10111”, “45 minutes” for “45 minute”, “20 uL” for “20 μL”, “utilized (Ki=IC50/(1+[S]/Km).” for “utilized (Ki=IC50/(1[S]/Km).”
# T1 sequence (O75116 whole entry): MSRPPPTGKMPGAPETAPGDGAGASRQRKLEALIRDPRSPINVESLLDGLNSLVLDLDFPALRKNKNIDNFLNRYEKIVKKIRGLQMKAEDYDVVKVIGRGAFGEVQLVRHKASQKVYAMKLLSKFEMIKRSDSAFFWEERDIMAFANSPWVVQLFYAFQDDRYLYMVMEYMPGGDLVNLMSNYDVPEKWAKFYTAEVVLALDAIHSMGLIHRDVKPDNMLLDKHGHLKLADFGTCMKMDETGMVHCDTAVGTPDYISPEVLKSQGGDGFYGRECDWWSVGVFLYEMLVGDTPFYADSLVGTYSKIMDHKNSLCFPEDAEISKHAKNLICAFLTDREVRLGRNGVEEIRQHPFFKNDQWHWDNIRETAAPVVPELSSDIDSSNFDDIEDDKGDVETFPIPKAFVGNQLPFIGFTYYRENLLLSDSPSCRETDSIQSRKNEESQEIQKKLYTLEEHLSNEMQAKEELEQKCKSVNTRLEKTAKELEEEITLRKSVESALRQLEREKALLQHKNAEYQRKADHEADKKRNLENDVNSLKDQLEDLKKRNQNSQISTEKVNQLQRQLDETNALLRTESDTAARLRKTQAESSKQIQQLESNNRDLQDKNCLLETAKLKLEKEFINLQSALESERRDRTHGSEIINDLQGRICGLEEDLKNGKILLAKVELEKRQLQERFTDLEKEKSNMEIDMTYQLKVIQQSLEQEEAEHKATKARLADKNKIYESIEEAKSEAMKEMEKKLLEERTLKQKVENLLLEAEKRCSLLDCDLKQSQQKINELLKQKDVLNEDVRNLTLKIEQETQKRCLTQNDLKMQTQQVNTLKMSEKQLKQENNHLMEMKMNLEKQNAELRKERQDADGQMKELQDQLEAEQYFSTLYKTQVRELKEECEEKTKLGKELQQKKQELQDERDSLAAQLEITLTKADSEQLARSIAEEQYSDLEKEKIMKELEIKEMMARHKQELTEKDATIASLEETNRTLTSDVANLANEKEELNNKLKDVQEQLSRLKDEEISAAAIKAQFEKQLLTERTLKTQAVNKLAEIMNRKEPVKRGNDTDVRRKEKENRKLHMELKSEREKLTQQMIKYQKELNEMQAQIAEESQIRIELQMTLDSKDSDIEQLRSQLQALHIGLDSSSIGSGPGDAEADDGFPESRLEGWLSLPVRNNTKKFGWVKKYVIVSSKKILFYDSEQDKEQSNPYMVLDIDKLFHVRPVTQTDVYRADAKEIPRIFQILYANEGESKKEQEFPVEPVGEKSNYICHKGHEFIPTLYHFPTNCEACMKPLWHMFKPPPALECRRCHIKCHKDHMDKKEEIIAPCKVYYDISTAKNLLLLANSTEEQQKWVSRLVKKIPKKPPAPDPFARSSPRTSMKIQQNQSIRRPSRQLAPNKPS
Structure (SMILES),Ki [1] [nM],Ki [2] [nM],Ki [3] [nM],Ki [4] [nM]
"O=C(Nc1cccc(CNc2ncc(-c3cn[nH]c3)c3c2CCO3)c1)c1ncc(CN2CCCC2)s1 [Example 48, N-(3-(((7-(1H-pyrazol-4-yl)-2,3-dihydrofuro[3,2-c]pyridin-4-yl)amino)methyl)phenyl)-5-(pyrrolidin-1-ylmethyl)thiazole-2-carboxamide]",≤ 3,≤ 3,≤ 3,≤ 3
"CNC(=O)c1cccc(CNc2ncc(-c3cnco3)c3c2CCO3)c1 [Example B, N-Methyl-3-(((7-(oxazol-5-yl)-2,3-dihydrofuro[3,2-c]pyridin-4-yl)amino)methyl)benzamide, reference compound]",3 to 30,–,> 30,–
"COCCNC(=O)c1cccc(CNc2ncc(-c3cn[nH]c3)c3c2CCO3)c1 [Example 7, 3-(((7-(1H-pyrazol-4-yl)-2,3-dihydrofuro[3,2-c]pyridin-4-yl)amino)methyl)-N-(2-methoxyethyl)benzamide]",≤ 3,–,3 to 30,–
"CN1CCc2cc(C(=O)Nc3cccc(CNc4ncc(-c5cn[nH]c5)c5c4CCO5)c3)ccc2C1 [Example 45, N-(3-(((7-(1H-pyrazol-4-yl)-2,3-dihydrofuro[3,2-c]pyridin-4-yl)amino)methyl)phenyl)-2-methyl-1,2,3,4-tetrahydroisoquinoline-6-carboxamide]",≤ 3,≤ 3,≤ 3,≤ 3
"O=C(NCc1cscn1)c1cccc(CNc2ncc(-c3cn[nH]c3)c3c2CCO3)c1 [Example 14, 3-(((7-(1H-pyrazol-4-yl)-2,3-dihydrofuro[3,2-c]pyridin-4-yl)amino)methyl)-N-(thiazol-4-ylmethyl)benzamide]",≤ 3,–,≤ 3,–
"CNC(=O)c1cccc(CNc2ncc(-c3cncs3)c3c2CCO3)c1 [Example A, N-Methyl-3-(((7-(thiazol-5-yl)-2,3-dihydrofuropyridin-4-yl)amino)methyl)benzamide, reference compound]",> 30,–,> 30,–
"O=C(NCc1ccon1)c1cccc(CNc2ncc(-c3cn[nH]c3)c3c2CCO3)c1 [Example 13, 3-(((7-(1H-pyrazol-4-yl)-2,3-dihydrofuro[3,2-c]pyridin-4-yl)amino)methyl)-N-(isoxazol-3-ylmethyl)benzamide]",≤ 3,–,3 to 30,–
"O=C(Cc1ccccc1)Nc1cccc(CNc2ncc(-c3cn[nH]c3)c3c2CCO3)c1 [Example 50, N-(3-(((7-(1H-pyrazol-4-yl)-2,3-dihydrofuro[3,2-c]pyridin-4-yl)amino)methyl)phenyl)-2-phenylacetamide]",–,3 to 30,–,3 to 30
"CN(C)Cc1cccc(CNC(=O)c2cccc(CNc3ncc(-c4cn[nH]c4)c4c3CCO4)c2)c1 [Example 19, 3-(((7-(1H-pyrazol-4-yl)-2,3-dihydrofuro[3,2-c]pyridin-4-yl)amino)methyl)-N-(3-((dimethylamino)methyl)benzyl)benzamide]",–,≤ 3,–,≤ 3
"O=C(NCc1ccncc1)c1cccc(CNc2ncc(-c3cn[nH]c3)c3c2CCO3)c1 [Example 53, 3-(((7-(1H-pyrazol-4-yl)-2,3-dihydrofuro[3,2-c]pyridin-4-yl)amino)methyl)-N-(pyridin-4-ylmethyl)benzamide]",–,≤ 3,–,≤ 3
"O=C(NCc1cncnc1)c1cccc(CNc2ncc(-c3cn[nH]c3)c3c2CCO3)c1 [Example 9, 3-(((7-(1H-pyrazol-4-yl)-2,3-dihydrofuro[3,2-c]pyridin-4-yl)amino)methyl)-N-(pyrimidin-5-ylmethyl)benzamide]",3 to 30,–,3 to 30,–
"Cn1ncc2c(C(=O)Nc3cccc(CNc4ncc(-c5cn[nH]c5)c5c4CCO5)c3)cccc21 [Example 42, N-(3-(((7-(1H-pyrazol-4-yl)-2,3-dihydrofuro[3,2-c]pyridin-4-yl)amino)methyl)phenyl)-1-methyl-1H-indazole-4-carboxamide]",–,≤ 3,–,3 to 30
"CN(C)CCn1ncc2cc(C(=O)Nc3cccc(CNc4ncc(-c5cn[nH]c5)c5c4CCO5)c3)ccc21 [Example 43, N-(3-(((7-(1H-pyrazol-4-yl)-2,3-dihydrofuro[3,2-c]pyridin-4-yl)amino)methyl)phenyl)-1-(2-(dimethylamino)ethyl)-1H-indazole-5-carboxamide]",≤ 3,≤ 3,≤ 3,≤ 3
"Cc1ccc(CNC(=O)c2cccc(CNc3ncc(-c4cn[nH]c4)c4c3CCO4)c2)s1 [Example 25, 3-(((7-(1H-pyrazol-4-yl)-2,3-dihydrofuro[3,2-c]pyridin-4-yl)amino)methyl)-N-((5-methylthiophen-2-yl)methyl)benzamide]",–,≤ 3,–,≤ 3
"O=C(NCc1ccccn1)c1cccc(CNc2ncc(-c3cn[nH]c3)c3c2CCO3)c1 [Example 4, 3-(((7-(1H-pyrazol-4-yl)-2,3-dihydrofuro[3,2-c]pyridin-4-yl)amino)methyl)-N-(pyridin-2-ylmethyl)benzamide]",3 to 30,–,3 to 30,–
"CN(C)Cc1ccc(CNC(=O)c2cccc(CNc3ncc(-c4cn[nH]c4)c4c3CCO4)c2)cc1 [Example 24, 3-(((7-(1H-pyrazol-4-yl)-2,3-dihydrofuro[3,2-c]pyridin-4-yl)amino)methyl)-N-(4-((dimethylamino)methyl)benzyl)benzamide]",–,≤ 3,–,≤ 3
"CN1CCC(n2ncc3cc(C(=O)Nc4cccc(CNc5ncc(-c6cn[nH]c6)c6c5CCO6)c4)ccc32)CC1 [Example 44, N-(3-(((7-(1H-pyrazol-4-yl)-2,3-dihydrofuro[3,2-c]pyridin-4-yl)amino)methyl)phenyl)-1-(1-methylpiperidin-4-yl)-1H-indazole-5-carboxamide]",≤ 3,≤ 3,≤ 3,≤ 3
"CC(=O)Nc1cccc(C(C)Nc2ncc(-c3cn[nH]c3)c3c2CCO3)c1 (stereo not drawn) [Example 52, N-(3-(1-((7-(1H-pyrazol-4-yl)-2,3-dihydrofuro[3,2-c]pyridin-4-yl)amino)ethyl)phenyl)acetamide]",–,3 to 30,–,3 to 30
"O=C(Nc1cccc(CNc2ncc(-c3cn[nH]c3)c3c2CCO3)c1)c1ccc2c(cnn2CCN2CCOCC2)c1 [Example 46, N-(3-(((7-(1H-pyrazol-4-yl)-2,3-dihydrofuro[3,2-c]pyridin-4-yl)amino)methyl)phenyl)-1-(2-morpholinoethyl)-1H-indazole-5-carboxamide]",≤ 3,≤ 3,≤ 3,≤ 3
